# From patent US20170247366A1, “SUBSTITUTED 4-ALKOXYPICOLINAMIDE ANALOGS AS MGLUR5 NEGATIVE ALLOSTERIC MODULATORS AND METHODS OF MAKING AND USING THE SAME” (VANDERBILT UNIVERSITY, priority 2014, published 2017)
# Molecular target: T1, rat mGluR5 (Rattus norvegicus, UniProt P31424)
# T1 construct: expressed in transfected cells
# Assay: mGluR5 calcium flux assay in HEK 293A cells, negative allosteric modulation of glutamate EC80 response
# Type: cell-based
# Conditions: HEK cells transfected with rat mGluR5; glutamate EC80; ± is standard error of at least three experiments
# Method: HEK 293A cells stably expressing either rat or human mGluR5 were plated in black-walled, clear-bottomed, poly-D-lysine coated 384-well plates in 20 μL of assay medium (DMEM containing 10% dialyzed FBS, 20 mM HEPES, 100 units/mL penicillin/streptomycin plus 250 ng/mL Fungizone, and 1 mM sodium pyruvate) at a density of 20K cells/well. The cells were grown overnight at 37° C. in the presence of 5% CO2. The next day, medium was removed and the cells incubated with 20 μL of 2.3 µM Fluo-4, AM prepared as a 2.3 mM stock in DMSO and mixed in a 1:1 ratio with 10% (w/v) pluronic acid F-127 and diluted in assay buffer (Hank's balanced salt solution, 20 mM HEPES, and 2.5 mM probenecid) for 45 minutes at 37° C. Dye was removed, 20 μL of assay buffer was added, and the plate was incubated for 5 minutes at room temperature.
# Ca^2+ flux was measured using the Functional Drug Screening System (FDSS7000, Hamamatsu, Japan). After establishment of a fluorescence baseline for about 3 seconds, the compounds of the present invention were added to the cells, and the response in cells was measured. 2.3 minutes later an EC20 concentration of the mGluR5 receptor agonist glutamate was added to the cells, and the response of the cells was measured for 1.9 minutes; an EC80 concentration of agonist was added and readings taken for an additional 1.7 minutes. All test compounds were dissolved and diluted to a concentration of 10 mM in 100% DMSO. Compounds were then serially diluted 1:3 in DMSO into 10 point concentration response curves, transferred to daughter plates, and further diluted into assay buffer to a 2× stock. Calcium fluorescence measures were recorded as fold over basal fluorescence; raw data was then normalized to the maximal response to glutamate. Antagonism of the agonist response of the mGluR5 receptor in the present invention was observed as a decrease in response to nearly maximal concentrations of glutamate in the presence of compound compared to the response to glutamate in the absence of compound.
# The raw data file containing all time points was used as the data source in the analysis template. This was saved by the FDSS as a tab-delimited text file. Data were normalized using a static ratio function (F/F0) for each measurement of the total 360 values per well divided by each well's initial value. Data were then reduced to peak amplitudes (Max−Initial Min) using a time range that starts approximately 3 seconds prior to the glutamate EC20/EC80 addition and continues for approximately 90-120 seconds. This is sufficient time to capture the peak amplitude of the cellular calcium response. Individual amplitudes were expressed as % EMax by multiplying each amplitude by 100 and then dividing the product by the mean of the amplitudes derived from the glutamate ECMax-treated wells. IC50 values for test compounds were generated by fitting the normalized values versus the log of the test compound concentration (in mol/L) using a 4 parameter logistic equation where none of the parameters were fixed. Each of the three values collected at each concentration of test compound were weighted evenly.
# For NAMs with a CRC that plateaus above 10% Glu Max, the IC50 values are reported, the compound is designated a “partial NAM” and the % Glu Max is reported. […] Compounds without measurable activity are designated as “>30,000 nM” since the top concentration of compound tested in the assay is 30 µM. Exemplary data are provided in Tables 1 and 2 below.
# Table 1 below lists specific compounds, experimentally determined molecular mass, and mGluR5 activity determined in a cell-based assay. The mGluR5 activity was determined using the metabotropic glutamate receptor activity assays in human embryonic kidney cells as described herein, wherein the human embryonic kidney cells were transfected with rat mGluR5. The mGluR5 activity data for some compounds are shown as the average of at least three experiments with the standard error in these cases. […]
# T1 sequence (P31424 21-1203): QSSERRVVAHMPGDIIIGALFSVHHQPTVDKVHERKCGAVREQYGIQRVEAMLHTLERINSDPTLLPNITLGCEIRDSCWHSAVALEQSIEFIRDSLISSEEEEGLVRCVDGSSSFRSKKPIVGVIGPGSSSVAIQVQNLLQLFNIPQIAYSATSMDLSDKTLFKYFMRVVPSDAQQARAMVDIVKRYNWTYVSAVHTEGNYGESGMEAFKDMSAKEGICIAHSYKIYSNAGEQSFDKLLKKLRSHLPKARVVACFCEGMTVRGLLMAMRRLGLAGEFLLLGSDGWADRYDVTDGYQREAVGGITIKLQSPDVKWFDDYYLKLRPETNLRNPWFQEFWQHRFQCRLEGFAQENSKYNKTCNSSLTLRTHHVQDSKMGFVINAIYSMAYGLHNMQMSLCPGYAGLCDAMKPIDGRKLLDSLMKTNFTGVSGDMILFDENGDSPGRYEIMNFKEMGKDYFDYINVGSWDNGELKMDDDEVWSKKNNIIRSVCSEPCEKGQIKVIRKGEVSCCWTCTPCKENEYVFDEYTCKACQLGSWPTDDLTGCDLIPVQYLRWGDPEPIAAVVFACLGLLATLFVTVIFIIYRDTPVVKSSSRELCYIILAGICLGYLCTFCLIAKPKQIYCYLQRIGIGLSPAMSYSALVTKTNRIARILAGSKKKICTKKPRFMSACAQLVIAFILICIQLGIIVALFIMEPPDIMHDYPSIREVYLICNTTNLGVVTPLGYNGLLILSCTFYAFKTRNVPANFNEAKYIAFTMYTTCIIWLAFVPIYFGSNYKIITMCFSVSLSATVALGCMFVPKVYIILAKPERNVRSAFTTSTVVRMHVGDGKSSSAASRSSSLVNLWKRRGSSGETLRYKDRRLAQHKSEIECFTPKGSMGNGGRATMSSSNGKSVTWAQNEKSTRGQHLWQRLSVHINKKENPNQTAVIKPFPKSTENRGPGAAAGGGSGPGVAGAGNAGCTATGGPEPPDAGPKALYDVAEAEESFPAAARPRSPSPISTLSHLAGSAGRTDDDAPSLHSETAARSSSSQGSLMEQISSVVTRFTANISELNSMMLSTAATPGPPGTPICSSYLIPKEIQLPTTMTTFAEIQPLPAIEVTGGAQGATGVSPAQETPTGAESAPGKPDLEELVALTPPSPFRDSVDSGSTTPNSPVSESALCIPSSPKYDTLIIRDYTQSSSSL
row,Compound,IC50 [nM]
1,Cc1cc(OC2CCC2)cc(C(=O)Nc2ccccn2)n1,43
2,Cc1cc(OC2CCC2)cc(C(=O)Nc2nc(C)cs2)n1,59 ± 7
3,Cc1cc(OC2COC2)cc(C(=O)Nc2ccc(F)cn2)n1,212 ± 8
4,Cc1cc(OC2CCCC2)cc(C(=O)Nc2ccc(F)cn2)n1,3660
5,Cc1cc(O[C@@H]2CCOC2)cc(C(=O)Nc2ccccn2)n1,23
6,Cc1cc(O[C@@H]2CCOC2)cc(C(=O)Nc2nc(C)cs2)n1,42 ± 9
7,Cc1cc(O[C@H]2CCOC2)cc(C(=O)Nc2ccccn2)n1,194
8,Cc1cc(O[C@H]2CCOC2)cc(C(=O)Nc2ccc(F)cn2)n1,685 ± 51
9,Cc1cc(O[C@H]2CCOC2)cc(C(=O)Nc2nc(C)cs2)n1,133 ± 14
10,Cc1cc(OC2CCCCC2)cc(C(=O)Nc2ccc(F)cn2)n1,3350
11,Cc1cc(OC2CCCOC2)cc(C(=O)Nc2ccccn2)n1 (stereo not drawn),224
12,Cc1cc(OC2CCCOC2)cc(C(=O)Nc2nc(C)cs2)n1 (stereo not drawn),140
13,Cc1cc(O[C@@H]2CCCOC2)cc(C(=O)Nc2ccc(F)cn2)n1,353 ± 83
14,Cc1cc(O[C@H]2CCCOC2)cc(C(=O)Nc2ccccn2)n1,75
15,Cc1cc(OC2CCCCC2)cc(C(=O)Nc2ccccn2)n1,1420
16,Cc1cc(OC2CCCCC2)cc(C(=O)Nc2nc(C)cs2)n1,2100
17,Cc1cc(OC2CCCOC2)cc(C(=O)Nc2ccc(F)cn2)n1 (stereo not drawn),497
18,Cc1cc(O[C@@H]2CCCOC2)cc(C(=O)Nc2ccccn2)n1,101
19,Cc1cc(O[C@@H]2CCCOC2)cc(C(=O)Nc2nc(C)cs2)n1,70 ± 11
20,Cc1cc(O[C@H]2CCCOC2)cc(C(=O)Nc2ccc(F)cn2)n1,264 ± 47
21,Cc1cc(O[C@H]2CCCOC2)cc(C(=O)Nc2nc(C)cs2)n1,91 ± 3
22,Cc1cc(OC2CCOCC2)cc(C(=O)Nc2ccccn2)n1,1560
23,Cc1cc(OCC2CCO2)cc(C(=O)Nc2ccccn2)n1 (stereo not drawn),646

row,Compound,IC50 [nM]
1,Cc1cc(OCC2CCO2)cc(C(=O)Nc2nc(C)cs2)n1 (stereo not drawn),399
2,Cc1cc(OCC2COC2)cc(C(=O)Nc2ccc(F)cn2)n1,4300
3,Cc1cc(OCC2CCCO2)cc(C(=O)Nc2ccccn2)n1 (stereo not drawn),725
4,Cc1cc(OCC2CCCO2)cc(C(=O)Nc2nc(C)cs2)n1 (stereo not drawn),273
5,Cc1cc(OC2CCOCC2)cc(C(=O)Nc2nc(C)cs2)n1,446
6,Cc1cc(OCC2CCO2)cc(C(=O)Nc2ccc(F)cn2)n1 (stereo not drawn),2480
7,Cc1cc(OCC2COC2)cc(C(=O)Nc2ccccn2)n1,392
8,Cc1cc(OCC2COC2)cc(C(=O)Nc2nc(C)cs2)n1,143 ± 32
9,Cc1cc(OCC2CCCO2)cc(C(=O)Nc2ccc(F)cn2)n1 (stereo not drawn),2330
10,Cc1cc(OCC2CCOC2)cc(C(=O)Nc2ccccn2)n1 (stereo not drawn),210
11,Cc1cc(OCC2CCOC2)cc(C(=O)Nc2ccc(F)cn2)n1 (stereo not drawn),701
12,Cc1cc(OCC2CCOC2)cc(C(=O)Nc2nc(C)cs2)n1 (stereo not drawn),200
13,Cc1cc(OC[C@@H]2CCOC2)cc(C(=O)Nc2ccccn2)n1,166
14,Cc1cc(OC[C@@H]2CCOC2)cc(C(=O)Nc2nc(C)cs2)n1,151 ± 38
15,Cc1cc(OC[C@H]2CCOC2)cc(C(=O)Nc2ccc(F)cn2)n1,4890
16,COCCOc1cc(C)nc(C(=O)Nc2ccccn2)c1,120
17,COCCOc1cc(C)nc(C(=O)Nc2nc(C)cs2)c1,82 ± 12
18,Cc1cc(OC2COC2)cc(C(=O)Nc2cccc(F)n2)n1,201
19,Cc1cc(O[C@H]2CO[C@H](C)C2)cc(C(=O)Nc2nc(C)c(F)s2)n1,1290
20,Cc1cc(OC2CSC2)cc(C(=O)Nc2nc(C)cs2)n1,31
21,Cc1cc(OC2C[S+]([O-])C2)cc(C(=O)Nc2nc(C)cs2)n1 (stereo not drawn),180
22,Cc1cc(OC2CS(=O)(=O)C2)cc(C(=O)Nc2nc(C)cs2)n1,392
23,CCC(=O)N1CC(Oc2cc(C)nc(C(=O)Nc3nc(C)cs3)c2)C1,611

row,Compound,IC50 [nM]
1,CCC(=O)N1CC(Oc2cc(C)nc(C(=O)Nc3ccc(F)cn3)c2)C1,3400
2,Cc1cc(OC2CN(C(=O)CC(C)C)C2)cc(C(=O)Nc2ccc(F)cn2)n1,4330
3,CCOC(=O)N1CC(Oc2cc(C)nc(C(=O)Nc3nc(C)cs3)c2)C1,862
4,COC(=O)N1CC(Oc2cc(C)nc(C(=O)Nc3ccc(F)cn3)c2)C1,1570
5,Cc1cc(OC2CN(C(=O)OC(C)C)C2)cc(C(=O)Nc2ccc(F)cn2)n1,4100
6,CCCCOC(=O)N1CC(Oc2cc(C)nc(C(=O)Nc3ccc(F)cn3)c2)C1,11200
7,Cc1cc(OC2CN(S(C)(=O)=O)C2)cc(C(=O)Nc2nc(C)cs2)n1,504
8,COC(=O)N1CC(Oc2cc(C)nc(C(=O)Nc3nc(C)cs3)c2)C1,686
9,Cc1cc(OC2CN(C(=O)OC(C)C)C2)cc(C(=O)Nc2nc(C)cs2)n1,2510
10,CCOC(=O)N1CC(Oc2cc(C)nc(C(=O)Nc3ccc(F)cn3)c2)C1,3340
11,CCCOC(=O)N1CC(Oc2cc(C)nc(C(=O)Nc3ccc(F)cn3)c2)C1,> 10000
12,Cc1cc(OC2CN(C(=O)OCC(C)C)C2)cc(C(=O)Nc2ccc(F)cn2)n1,> 30000
13,CCS(=O)(=O)N1CC(Oc2cc(C)nc(C(=O)Nc3nc(C)cs3)c2)C1,1270
14,CCCS(=O)(=O)N1CC(Oc2cc(C)nc(C(=O)Nc3nc(C)cs3)c2)C1,789
15,Cc1cc(OC2CN(S(=O)(=O)CC(C)C)C2)cc(C(=O)Nc2nc(C)cs2)n1,> 10000
16,CCCS(=O)(=O)N1CC(Oc2cc(C)nc(C(=O)Nc3ccc(F)cn3)c2)C1,> 10000
17,Cc1cc(OC2CN(S(=O)(=O)CC(C)C)C2)cc(C(=O)Nc2ccc(F)cn2)n1,> 30000
18,Cc1cc(OC2CN(C(=O)N(C)C)C2)cc(C(=O)Nc2ccc(F)cn2)n1,> 10000
19,Cc1cc(OC2CN(S(=O)(=O)C(C)C)C2)cc(C(=O)Nc2nc(C)cs2)n1,3620
20,CCS(=O)(=O)N1CC(Oc2cc(C)nc(C(=O)Nc3ccc(F)cn3)c2)C1,> 10000
21,Cc1cc(OC2CN(S(=O)(=O)C(C)C)C2)cc(C(=O)Nc2ccc(F)cn2)n1,3980
22,Cc1cc(OC2CN(C(=O)N(C)C)C2)cc(C(=O)Nc2nc(C)cs2)n1,> 10000

# Same assay, conditions: rat mGluR5; CRC plateaus above 10% Glu Max
row,Compound,NAM designation
1,Cc1cc(OC2CN(C(=O)OC(C)C)C2)cc(C(=O)Nc2ccc(F)cn2)n1,Partial NAM
2,Cc1cc(OC2CN(S(=O)(=O)C(C)C)C2)cc(C(=O)Nc2ccc(F)cn2)n1,Partial NAM

# Same assay, conditions: rat mGluR5; average Glu Max at 30 μM; CRC does not hit a plateau
row,Compound,% Glu Max at single concentration [%]
1,CCCOC(=O)N1CC(Oc2cc(C)nc(C(=O)Nc3ccc(F)cn3)c2)C1,37
2,Cc1cc(OC2CN(S(=O)(=O)CC(C)C)C2)cc(C(=O)Nc2nc(C)cs2)n1,59
3,CCCS(=O)(=O)N1CC(Oc2cc(C)nc(C(=O)Nc3ccc(F)cn3)c2)C1,53
4,Cc1cc(OC2CN(C(=O)N(C)C)C2)cc(C(=O)Nc2ccc(F)cn2)n1,69
5,CCS(=O)(=O)N1CC(Oc2cc(C)nc(C(=O)Nc3ccc(F)cn3)c2)C1,62
6,Cc1cc(OC2CN(C(=O)N(C)C)C2)cc(C(=O)Nc2nc(C)cs2)n1,31

# Same assay, conditions: rat mGluR5; response in presence of compound as percentage of maximal glutamate response; CRC plateaus above 10%
row,Compound,"% Glu Max (partial NAM, plateau of CRC) [%]"
1,Cc1cc(OC2CN(C(=O)OC(C)C)C2)cc(C(=O)Nc2ccc(F)cn2)n1,42
2,Cc1cc(OC2CN(S(=O)(=O)C(C)C)C2)cc(C(=O)Nc2ccc(F)cn2)n1,58
